# Measurements as given in paper PMC9112005, “Sas20 is a highly flexible starch-binding protein in the Ruminococcus bromii cell-surface amylosome” (The Journal of Biological Chemistry, 2022).
# Several values for one entry are separate records, joined by “and”; a condition that tells them apart may be missing. Equal values may be shown once. Entries after “also recorded” stand apart in the source; their conditions may differ. Read-outs that look alike come from different tables or passages of the source.
# Assays:
# [1] = target: Sas20d1 (Ruminococcus bromii, UniProt Z9RYL2BLZ4); assay: ITC binding to Sas20d1; conditions: average of three replicates; for Kd / Kd (μM): 25 °C, 50 mM Hepes pH 7.0, one-site binding model, polysaccharides: based on concentration of binding sites; for N (binding sites): one-site binding model
# Method: (§1) ITC measurements were carried out using a TA Instruments Nano ITC. Proteins were dialyzed into 50 mM Hepes (pH = 7.0), and oligosaccharides were prepared using the dialysis buffer. […] For polysaccharide titrations, the concentration of ligand was adjusted to fit a one-site binding model with n = 1; this sets the concentration of the ligand to the concentration of binding sites for the protein within the polysaccharide, as previously described ([77]). The solution was stirred at 250 rpm, and the resulting heat of reaction was measured. Data were analyzed using the TA Instruments NanoAnalyze software package fitting to a one-site binding model.
# [2] = target: Sas20d1 Y60A; assay: ITC binding to Sas20d1 Y60A mutant; set-up: species or system Ruminococcus bromii; conditions: 25 °C, one-site binding model, average of three replicates
# [3] = target: Sca5X25-2b; assay: ITC binding to Sca5X25-2b; conditions: 25 °C, one-site binding model, average of three replicates
# Method: ITC measurements were carried out using a TA Instruments Nano ITC. Proteins were dialyzed into 50 mM Hepes (pH = 7.0), and oligosaccharides were prepared using the dialysis buffer. […] The solution was stirred at 250 rpm, and the resulting heat of reaction was measured. Data were analyzed using the TA Instruments NanoAnalyze software package fitting to a one-site binding model.
# [4] = target: Sas20d2 (Ruminococcus bromii, UniProt A0A2N0UW79); assay: ITC binding to Sas20d2; conditions: for N (binding sites): one-site binding model
# Method: as §1
# [5] = target: Sas20d1tr (Ruminococcus bromii, UniProt Z9RYL2BLZ4); assay: ITC binding to truncated Sas20d1 lacking C-terminal helices
# Method: as §1
# [6] = target: Sca5X25-2 (Ruminococcus bromii, UniProt Z9P1N1M2Z2); assay: ITC binding to Sca5X25-2
# Method: as §1
# [7] = tested on: Sas20d2 W440A; assay: ITC binding to Sas20d2 W440A mutant; set-up: species or system Ruminococcus bromii
# [8] = target: Sca5X25-2a; assay: ITC binding to Sca5X25-2a; conditions: 25 °C, one-site binding model, average of three replicates
# Method: as §1
# [9] = tested on: Sas20d2 W329A; assay: ITC binding to Sas20d2 W329A mutant; set-up: species or system Ruminococcus bromii
# [10] = target: Sas20d1 W72A; assay: ITC binding to Sas20d1 W72A mutant; set-up: species or system Ruminococcus bromii; conditions: 25 °C, one-site binding model, average of three replicates
# [11] = tested on: Sas20d2 W375A; assay: ITC binding to Sas20d2 W375A mutant; set-up: species or system Ruminococcus bromii
# [12] = target: Sas20d2 W481A; assay: ITC binding to Sas20d2 W481A mutant; set-up: species or system Ruminococcus bromii; conditions: 25 °C, one-site binding model, average of three replicates
# [13] = Kd (μM), 25 °C, one-site binding model, average of three replicates, asterisk denotes fixed Kd
# [14] = 25 °C, one-site binding model, average of three replicates
# [15] = 25 °C, 50 mM Hepes pH 7.0, one-site binding model, average of three replicates, polysaccharides: based on concentration of binding sites
# Sequence of Sas20d1 (Z9RYL2BLZ4 14-251 limits assumed): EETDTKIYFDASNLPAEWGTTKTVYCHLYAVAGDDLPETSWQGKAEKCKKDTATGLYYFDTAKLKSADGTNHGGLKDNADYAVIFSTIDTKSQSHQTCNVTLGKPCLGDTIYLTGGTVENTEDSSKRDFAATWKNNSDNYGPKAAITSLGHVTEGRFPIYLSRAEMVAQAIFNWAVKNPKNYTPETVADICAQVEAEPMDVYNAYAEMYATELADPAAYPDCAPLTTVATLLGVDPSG
# Sequence of Sas20d2 (A0A2N0UW79 entry or part of it): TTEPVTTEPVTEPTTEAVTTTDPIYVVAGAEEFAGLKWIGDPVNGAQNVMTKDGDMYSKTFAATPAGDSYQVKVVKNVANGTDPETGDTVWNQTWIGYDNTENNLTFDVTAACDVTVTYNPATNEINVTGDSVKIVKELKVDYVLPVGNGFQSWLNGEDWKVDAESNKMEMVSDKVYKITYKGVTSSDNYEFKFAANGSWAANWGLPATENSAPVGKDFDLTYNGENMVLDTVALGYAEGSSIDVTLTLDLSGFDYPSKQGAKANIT
# Sequence of Sas20d1tr (Z9RYL2BLZ4 14-173 limits assumed): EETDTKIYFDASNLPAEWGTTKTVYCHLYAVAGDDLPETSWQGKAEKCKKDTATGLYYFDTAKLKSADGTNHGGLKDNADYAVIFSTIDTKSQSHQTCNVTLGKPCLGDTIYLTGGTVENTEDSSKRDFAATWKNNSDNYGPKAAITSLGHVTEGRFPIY
# Sequence of Sca5X25-2 (Z9P1N1M2Z2 14-256 limits assumed): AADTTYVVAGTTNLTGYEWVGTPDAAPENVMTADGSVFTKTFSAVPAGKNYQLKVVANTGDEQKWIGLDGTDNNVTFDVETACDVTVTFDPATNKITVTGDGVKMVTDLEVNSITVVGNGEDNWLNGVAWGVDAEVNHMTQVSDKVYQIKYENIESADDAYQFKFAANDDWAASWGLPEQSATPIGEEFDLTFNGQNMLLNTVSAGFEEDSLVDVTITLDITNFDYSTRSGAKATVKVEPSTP
# Sequence of Sca5X25-2b (Z9P1N1M2Z2 118-256 limits assumed): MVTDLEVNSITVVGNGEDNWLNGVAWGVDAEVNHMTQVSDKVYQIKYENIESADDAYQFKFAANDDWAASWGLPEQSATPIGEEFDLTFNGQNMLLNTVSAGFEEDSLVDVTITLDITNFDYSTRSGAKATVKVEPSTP
# Sequence of Sca5X25-2a (Z9P1N1M2Z2 13-117 limits assumed): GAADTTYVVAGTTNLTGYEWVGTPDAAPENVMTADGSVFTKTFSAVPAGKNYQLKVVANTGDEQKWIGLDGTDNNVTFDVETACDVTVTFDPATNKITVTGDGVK
compound,measurement,setting,value
"O=[N+]([O-])c1ccc(O[C@H]2O[C@H](CO)[C@@H](O[C@H]3O[C@H](CO)[C@@H](O[C@H]4O[C@H](CO)[C@@H](O[C@H]5O[C@H](CO)[C@@H](O[C@H]6O[C@H](CO)[C@@H](OC7OC(CO)C(O)C(O)C7O)[C@H](O)[C@H]6O)[C@H](O)[C@H]5O)[C@H](O)[C@H]4O)[C@H](O)[C@H]3O)[C@H](O)[C@H]2O)cc1 (stereo partly drawn) [PNP-M6, PNP-α-maltohexaose]",Kd,[1],0.87 ± 0.48 µM
same,N (binding sites),[1],1.15 ± 0.07
"OC[C@H]1O[C@H](O[C@H]2[C@H](O)[C@@H](O)[C@@H](O[C@H]3[C@H](O)[C@@H](O)[C@@H](O[C@H]4[C@H](O)[C@@H](O)[C@@H](O[C@H]5[C@H](O)[C@@H](O)[C@@H](O[C@H]6[C@H](O)[C@@H](O)[C@@H](O[C@H]7[C@H](O)[C@@H](O)C(O)O[C@@H]7CO)O[C@@H]6CO)O[C@@H]5CO)O[C@@H]4CO)O[C@@H]3CO)O[C@@H]2CO)[C@H](O)[C@@H](O)[C@@H]1O (some centres unmarked) [Maltoheptaose, maltoheptaose]",Kd,[2],8.29 ± 0.51 µM
same,Kd (μM),[2],binds
same,Kd (μM),[3],failed to bind
same,fold lower Kd for maltoheptaose over maltotriose,[4],~1500 ×
same,N (binding sites),[4],1.15 ± 0.15
same,fold decrease in binding versus full-length Sas20d1,[5],~100 fold
same,Kd,[5]; [13],155 ± 63 µM
same,N (binding sites),[5]; one-site binding model,1.45 ± 0.27
same,Kd,[6],0.21 ± 0.029 µM
same,N (binding sites),"[6]; ITC, one-site binding model",0.81 ± 0.09
same,fold increase in the Kd compared with WT Sas20d2,[7],~100 fold
same,Kd,[7]; [14],90 ± 7.72 µM
same,Kd (μM),[8],failed to bind
same,fold increase in the Kd compared with WT Sas20d2,[9],~100 fold
same,Kd,[9]; [14],90.8 ± 25.7 µM
same,Kd (μM),[10],did not bind
same,Kd,[1]; Kd (μM),≤ 20 µM and 1.5 µM and 1.53 µM
same,N (binding sites),[1],0.89 ± 0.38
same,fold increase in the Kd compared with WT Sas20d2,[11],~100 fold
same,Kd,[11]; [14],88.1 ± 36 µM
same,Kd (μM),[12],eliminated binding
"OC[C@H]1O[C@H](O[C@H]2[C@H](O)[C@@H](O)[C@@H](O[C@H]3[C@H](O)[C@@H](O)C(O)O[C@@H]3CO)O[C@@H]2CO)[C@H](O)[C@@H](O)[C@@H]1O (some centres unmarked) [Maltotriose, maltotriose]",N (binding sites),[4],1.18 ± 0.05
same,Kd (μM),[7]; [14],loss of binding
same,Kd (μM),[9]; [14],loss of binding
same,Kd (μM),[10],did not bind
same,Kd (μM),[11]; [14],loss of binding
same,Kd (μM),[12],eliminated binding
"OC[C@H]1O[C@@H]2O[C@H]3[C@H](O)[C@@H](O)[C@@H](O[C@H]4[C@H](O)[C@@H](O)[C@@H](O[C@H]5[C@H](O)[C@@H](O)[C@@H](O[C@H]6[C@H](O)[C@@H](O)[C@@H](O[C@H]7[C@H](O)[C@@H](O)[C@@H](O[C@H]8[C@H](O)[C@@H](O)[C@@H](O[C@H]1[C@H](O)[C@H]2O)O[C@@H]8CO)O[C@@H]7CO)O[C@@H]6CO)O[C@@H]5CO)O[C@@H]4CO)O[C@@H]3CO [β-Cyclodextrin, β-cyclodextrin]",Kd (μM),[4]; [15],weak binding
same,N (binding sites),[4],0.98 ± 0.09
same,Kd,[5]; Kd,> 1000 µM
same,Kd,[5]; [13],1050 ± 168 µM
same,Kd,[6],346 ± 78.8 µM
same,N (binding sites),"[6]; ITC, one-site binding model",0.958 ± 0.01
same,Kd (μM),[1],failed to bind
"OC[C@H]1O[C@@H]2O[C@H]3[C@H](O)[C@@H](O)[C@@H](O[C@H]4[C@H](O)[C@@H](O)[C@@H](O[C@H]5[C@H](O)[C@@H](O)[C@@H](O[C@H]6[C@H](O)[C@@H](O)[C@@H](O[C@H]7[C@H](O)[C@@H](O)[C@@H](O[C@H]1[C@H](O)[C@H]2O)O[C@@H]7CO)O[C@@H]6CO)O[C@@H]5CO)O[C@@H]4CO)O[C@@H]3CO [α-Cyclodextrin, α-cyclodextrin]",Kd (μM),[4]; [15],Neither Sas20d2 nor Sca5X25-2 bound; also recorded: failed to bind
same,Kd,[5],> 1000 µM
same,Kd (μM),"[6]; ITC, 25 °C, one-site binding model, average of three replicates",Neither Sas20d2 nor Sca5X25-2 bound
same,Kd (μM),[1],failed to bind
"O=[N+]([O-])c1ccc(OC2OC(CO)C(OC3OC(CO)C(OC4OC(CO)C(OC5OC(CO)C(OC6OC(CO)C(OC7OC(CO)C(OC8OC9COC(c%10ccccc%10)OC9C(O)C8O)C(O)C7O)C(O)C6O)C(O)C5O)C(O)C4O)C(O)C3O)C(O)C2O)cc1 (centres unmarked) [B-PNP-M7, benzylidene-blocked para-nitrophenyl maltoheptaoside]",Kd,[1],7.12 ± 1.53 µM
same,N (binding sites),[1],1.28 ± 0.29
soluble starch,Kd,[4]; [15],≤ 20 µM
same,Kd,[1],≤ 20 µM
